# Measurements taken from patent publication US20240342116A1, “TARGETING SOX10+ BONE MARROW GLIAL CELLS FOR TREATING MYELOFIBROSIS” (The Trustees of Columbia University in the City of New York, priority 2023, published 2024).
# “Also recorded” adds a separate entry of the source.
# Legend:
# [1] = tested on: Sox10+ glial cells / ErbB3+ glial cells; assay: Use examples: treatment of a subject with myelofibrosis; conditions: after one or more doses
# Procedure: The subject is treated with a combined Jak inhibition and ErbB3 pathway inhibition, using, e.g., an antibody or antibody fragment agent which blocks ErbB3. […] The combined treatment targets both the hematopoietic compartment and the bone marrow niche.
# [2] = tested on: Sox10+ glial cells in the bone marrow; assay: Bone marrow glial cell ablation (chemical sympathectomy) with 6-OHDA in the MPLW515L PMF model
# [3] = target: T1, alarmin complex (S100A8/A9) (Mus musculus, UniProt P31725); conditions: reference 63; cited from earlier work
# T1 sequence (P31725 2-113 limits assumed): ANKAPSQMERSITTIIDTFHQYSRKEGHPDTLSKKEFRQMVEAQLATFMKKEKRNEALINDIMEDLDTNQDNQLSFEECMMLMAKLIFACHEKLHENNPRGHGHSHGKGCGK
SMILES,symptom(s) of myelofibrosis [1],depletion of Sox10+ glial cells in the bone marrow ([2]; 6-OHDA-treated mice),"body weight loss ([2]; 6-OHDA-treated mice, 50 mg/kg i.v. twice on alternating days)",bone marrow cellularity ([2]; MPLW515L PMF mice vs vehicle),liver size / weight ([2]; MPLW515L PMF mice vs vehicle),spleen size / weight ([2]; MPLW515L PMF mice vs vehicle),bone marrow fibrosis ([2]; MPLW515L PMF mice vs vehicle-treated control),"levels of active TGF-β in the bone marrow ([2]; bone marrow fluid, ELISA, MPLW515L PMF mice vs vehicle)","levels of active TGF-β in the serum ([2]; serum, ELISA, MPLW515L PMF mice vs vehicle)",PMF features [3]
"NCCc1cc(O)c(O)cc1O [6-OHDA, 6-hydroxydopamine]",one or more improvements,efficiently depleted,no significant body weight loss,significant increase,reduced; also recorded: decreased,reduced; also recorded: decreased,significantly reduced; also recorded: ameliorated,significantly reduced,without affecting,–
COc1cccc2c1c(O)c(C(=O)N(C)c1ccc(C(F)(F)F)cc1)c(=O)n2C [tasquinimod],–,–,–,–,–,–,–,–,–,ameliorated
